Results as given in PubChem BioAssay (NCI).
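Here, GI50 denotes the concentration required for 50% inhibition of growth. The concentration for full growth arrest is given as TGI.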

Key:
Experiment in all cases: growth of human tumour cells (NCI), 384-well format
HS 578T breast = test system: HS 578T breast
ACHN renal = test system: ACHN renal
NCI-H23 lung = test system: NCI-H23 lung
HOP-92 NSCLC = test system: HOP-92 NSCLC
A498 renal = test system: A498 renal
KM12 colon = test system: KM12 colon
DU-145 prostate = test system: DU-145 prostate
HCT-15 colon = test system: HCT-15 colon
MCF7 breast = test system: MCF7 breast
HOP-62 NSCLC = test system: HOP-62 NSCLC
SK-OV-3 ovarian = test system: SK-OV-3 ovarian
SN12C renal = test system: SN12C renal
T-47D breast = test system: T-47D breast
OVCAR-5 ovarian = test system: OVCAR-5 ovarian
MDA-MB-468 breast = test system: MDA-MB-468 breast
U251 glioblastoma = test system: U251 glioblastoma
SK-MEL-28 melanoma = test system: SK-MEL-28 melanoma
HT29 colon = test system: HT29 colon
A549 NSCLC = test system: A549 NSCLC
SK-MEL-5 melanoma = test system: SK-MEL-5 melanoma
NCI-H460 NSCLC = test system: NCI-H460 NSCLC
RPMI-8226 leukemia = test system: RPMI-8226 leukemia
SF-539 CNS = test system: SF-539 CNS
SK-MEL-2 melanoma = test system: SK-MEL-2 melanoma
HCT-116 colon = test system: HCT-116 colon
UACC-62 melanoma = test system: UACC-62 melanoma
SNB-19 CNS = test system: SNB-19 CNS
786-0 renal = test system: 786-0 renal
NCI-H322M lung = test system: NCI-H322M lung
K-562 leukemia = test system: K-562 leukemia
M14 melanoma = test system: M14 melanoma
LOX IMVI melanoma = test system: LOX IMVI melanoma
HL-60(TB) leukemia = test system: HL-60(TB) leukemia
SF-295 CNS = test system: SF-295 CNS
BT-549 breast = test system: BT-549 breast
IGROV1 ovarian = test system: IGROV1 ovarian
OVCAR-3 ovarian = test system: OVCAR-3 ovarian
PC-3 prostate = test system: PC-3 prostate
COLO 205 colon = test system: COLO 205 colon
SR leukemia = test system: SR leukemia
MDA-MB-231 breast = test system: MDA-MB-231 breast
UO-31 renal = test system: UO-31 renal
TK-10 renal = test system: TK-10 renal
SW-620 colon = test system: SW-620 colon
HCC-2998 colon = test system: HCC-2998 colon
MALME-3M melanoma = test system: MALME-3M melanoma
MOLT-4 leukemia = test system: MOLT-4 leukemia

COCCOc1cnc2ccn([C@H](C)c3nnc4c(F)cc(-c5cnn(C)c5)cn34)c(=O)c2c1
GI50 (HS 578T breast): > 100 µM
TGI (HS 578T breast): > 100 µM
GI50 (ACHN renal): > 100 µM
TGI (ACHN renal): > 100 µM
GI50 (NCI-H23 lung): > 100 µM
TGI (NCI-H23 lung): > 100 µM
GI50 (HOP-92 NSCLC): > 100 µM
TGI (HOP-92 NSCLC): > 100 µM
GI50 (A498 renal): > 100 µM
TGI (A498 renal): > 100 µM
GI50 (KM12 colon): 24.5 µM
TGI (KM12 colon): > 100 µM
GI50 (DU-145 prostate): > 100 µM
TGI (DU-145 prostate): > 100 µM
GI50 (HCT-15 colon): > 100 µM
TGI (HCT-15 colon): > 100 µM
GI50 (MCF7 breast): > 100 µM
TGI (MCF7 breast): > 100 µM
GI50 (HOP-62 NSCLC): > 100 µM
TGI (HOP-62 NSCLC): > 100 µM
GI50 (SK-OV-3 ovarian): > 100 µM
TGI (SK-OV-3 ovarian): > 100 µM
GI50 (SN12C renal): > 100 µM
TGI (SN12C renal): > 100 µM
GI50 (T-47D breast): > 100 µM
TGI (T-47D breast): > 100 µM
GI50 (OVCAR-5 ovarian): > 100 µM
TGI (OVCAR-5 ovarian): > 100 µM
GI50 (MDA-MB-468 breast): > 100 µM
TGI (MDA-MB-468 breast): > 100 µM
GI50 (U251 glioblastoma): > 100 µM
TGI (U251 glioblastoma): > 100 µM
GI50 (SK-MEL-28 melanoma): > 100 µM
TGI (SK-MEL-28 melanoma): > 100 µM
GI50 (HT29 colon): > 100 µM
TGI (HT29 colon): > 100 µM
GI50 (A549 NSCLC): > 100 µM
TGI (A549 NSCLC): > 100 µM
GI50 (SK-MEL-5 melanoma): > 100 µM
TGI (SK-MEL-5 melanoma): > 100 µM
GI50 (NCI-H460 NSCLC): > 100 µM
TGI (NCI-H460 NSCLC): > 100 µM
GI50 (RPMI-8226 leukemia): > 100 µM
TGI (RPMI-8226 leukemia): > 100 µM
GI50 (SF-539 CNS): > 100 µM
TGI (SF-539 CNS): > 100 µM
GI50 (SK-MEL-2 melanoma): > 100 µM
TGI (SK-MEL-2 melanoma): > 100 µM
GI50 (HCT-116 colon): > 100 µM
TGI (HCT-116 colon): > 100 µM
GI50 (UACC-62 melanoma): 58.1 µM
TGI (UACC-62 melanoma): > 100 µM
GI50 (SNB-19 CNS): > 100 µM
TGI (SNB-19 CNS): > 100 µM
GI50 ([…]-0 renal): > 100 µM
TGI (786-0 renal): > 100 µM
GI50 (NCI-H322M lung): > 100 µM
TGI (NCI-H322M lung): > 100 µM
GI50 (K-562 leukemia): > 100 µM
TGI (K-562 leukemia): > 100 µM
GI50 (M14 melanoma): > 100 µM
TGI (M14 melanoma): > 100 µM
GI50 (LOX IMVI melanoma): > 100 µM
TGI (LOX IMVI melanoma): > 100 µM
GI50 (HL-60(TB) leukemia): > 100 µM
TGI (HL-60(TB) leukemia): > 100 µM
GI50 (SF-295 CNS): 85.2 µM
TGI (SF-295 CNS): > 100 µM
GI50 (BT-549 breast): > 100 µM
TGI (BT-549 breast): > 100 µM
GI50 (IGROV1 ovarian): > 100 µM
TGI (IGROV1 ovarian): > 100 µM
GI50 (OVCAR-3 ovarian): > 100 µM
TGI (OVCAR-3 ovarian): > 100 µM
GI50 (PC-3 prostate): > 100 µM
TGI (PC-3 prostate): > 100 µM
GI50 (COLO 205 colon): > 100 µM
TGI (COLO 205 colon): > 100 µM
GI50 (SR leukemia): 60.2 µM
TGI (SR leukemia): > 100 µM
GI50 (MDA-MB-231 breast): > 100 µM
TGI (MDA-MB-231 breast): > 100 µM
GI50 (UO-31 renal): > 100 µM
TGI (UO-31 renal): > 100 µM
GI50 (TK-10 renal): > 100 µM
TGI (TK-10 renal): > 100 µM
GI50 (SW-620 colon): > 100 µM
TGI (SW-620 colon): > 100 µM
GI50 (HCC-2998 colon): > 100 µM
TGI (HCC-2998 colon): > 100 µM
GI50 (MALME-3M melanoma): > 100 µM
TGI (MALME-3M melanoma): > 100 µM
GI50 (MOLT-4 leukemia): > 94 µM
TGI (MOLT-4 leukemia): > 100 µM
